In US10738041B2, “Ferroportin inhibitors” (Vifor (International) AG, priority 2015, dated 2020):
Marks after values point to notes of the source that are not given here.

Assays:
naïve WT C57BL/6 mice = assay: Hypoferremia in naïve mice; assay type: in vivo, mouse; settings: Mus musculus, po, 3 h, naïve WT C57BL/6 mice, relative to vehicle, read-out: Serum Iron Reduction at 3 h (%)
Description: Female C57BL/6 mice (Janvier, France) at age of 9 weeks were fed a standard diet (Harlan Provimi Kliba 3436) and treated per os (p.o.) with compounds or the corresponding amount of vehicle at a volume of 10 ml/kg body weight. Fpn inhibitors were formulated in 0.5% methylcellulose/water or 20% cremophor EL/water and dosed p.o. in mice at 10, 30 or 100 mg/kg body weight. Three hours later, mice were pre terminally anesthetized in isoflurane chambers and blood was collected by retro-orbital bleeding. Mice were sacrificed by cervical dislocation and spleens, livers and duodena were harvested and used for biomarker analysis. All experiments have been conducted in compliance with the license approved by the responsible veterinarian authorities. Serum was isolated by centrifugation of blood into gel-containing microtainers and serum iron was determined by the MULTIGENT Iron assay (Abbott Diagnostics, 6K95). Eight mice per group were used and one-way ANOVA with Bonferroni's multiple comparison test was performed to analyze the statistical differences between the experimental groups.

ferroportin = molecular target: T1, ferroportin (Homo sapiens, UniProt Q9NP59); assay: Inhibition of Iron Efflux by Ferroportin Inhibitors; assay type: cell-based; settings: T47D cells, 58Fe in supernatant, 20 h; representative (FIG. 2)
T1 construct: host or cells: T47D cells
T1 sequence (Q9NP59 1-571): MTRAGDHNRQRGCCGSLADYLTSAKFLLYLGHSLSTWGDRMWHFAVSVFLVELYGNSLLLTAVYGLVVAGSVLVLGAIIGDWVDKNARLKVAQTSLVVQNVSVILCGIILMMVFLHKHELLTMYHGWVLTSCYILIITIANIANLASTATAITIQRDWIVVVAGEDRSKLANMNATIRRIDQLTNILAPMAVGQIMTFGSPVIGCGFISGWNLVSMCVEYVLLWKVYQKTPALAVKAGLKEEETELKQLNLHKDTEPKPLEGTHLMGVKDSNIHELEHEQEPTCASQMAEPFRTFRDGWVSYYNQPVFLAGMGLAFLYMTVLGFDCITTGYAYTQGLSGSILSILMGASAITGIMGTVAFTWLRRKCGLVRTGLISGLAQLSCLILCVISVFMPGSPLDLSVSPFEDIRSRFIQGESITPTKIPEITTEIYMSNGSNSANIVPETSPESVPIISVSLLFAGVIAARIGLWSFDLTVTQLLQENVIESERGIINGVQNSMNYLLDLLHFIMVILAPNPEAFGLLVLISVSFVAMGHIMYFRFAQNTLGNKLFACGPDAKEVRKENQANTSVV
Description: The activity of hepcidin and ferroportin inhibitor compounds regarding their ability to block iron export via ferroportin was tested on T47D cells (ECACC, Cat. 85102201) as described below.
Cells were plated in 24-well plates (Greiner, Cat. 662160) containing 350,000 cells/well and incubated overnight with 100 μM ^58Fe (^58Fe(II)-Sulfate, Vifor Pharma Batch No. ROR 3085) in 500 μM L-Ascorbic Acid (Sigma Aldrich, Cat. 795437) containing growth medium. […] A serial dilution of hepdicin (Bachem) or ferroportin inhibitors (4 μM-0.0064 μM, 5 fold dilution) was added in a total volume of 0.6 ml per well. Cells were incubated at 37° C. with 5% CO2 for 20 h. Supernatants were collected and ^58Fe was measured using inductively coupled plasma mass spectrometry (ICP-MS, Thermo Scientific, Element 2). Pellets were harvested for protein concentration measurements. Results are plotted as ng^58Fe in supernatant per mg protein in cell lysates.

b2m−/− mice [1] = assay: Correction of hyperferremia in beta2-microglobulin deficient mice; assay type: in vivo, mouse; settings: blood collected 1 or 3 hours after administration (time not given)
From the text: Mutations in genes involved in sensing the systemic iron stores, such as hepcidin (Hamp1), hemochromatosis protein (HFE), hemojuvelin (HJV) and transferrin receptor 2 (TFR2) cause iron overload in mice and men. HFE, HJV and TFR2 molecules on hepatocytes are necessary for signaling of appropriate hepcidin production and their deficiency results in pathophysiologically low hepcidin levels and excessive iron absorption. HFE mutations is the most frequent cause of hereditary hemochromatosis (HH) in Caucasian adults. HFE is a MHC class I-like membrane molecule that associates with beta 2-microglobulin and participates in hepcidin transcriptional regulation through the bone morphogenetic protein receptor (BMPR) pathway. HFE−/− mice have decreased hepcidin levels, develop hyperferremia and high hepatic iron levels, which makes them a suitable animal model for studying iron overload in humans (Zhou, 1998). Mice deficient in beta 2-microglobulin (b2m−/−) develop hyperferremia and hemochromatosis similarly to HFE−/− animals, as beta 2-microglobulin is necessary for the cell-surface expression and function of HFE (Rothenberg and Voland, 1996). Due to the unavailability of HFE−/− mice, b2m−/− mice were used as a model of iron overload.
Female and male homozygous b2m−/− mice were supplied from Jackson Laboratories (B6.129P2-B2mtm1Unc/J, Stock Number: 002087) at age of 6 to 7 weeks and fed standard diet (Harlan Provimi Kliba 3436) ad libitum. Age and gender matched WT C57BL/6 mice were supplied by Charles River. To study the acute effects of ferroportin (Fpn) inhibitors in iron overload b2m−/− mice were treated with compounds or the corresponding amount of vehicle at a volume of 10 ml/kg body weight. […] WT controls received only vehicle. Three hours later, mice were pre-terminally anesthetized in isoflurane chambers and blood was collected by retro-orbital bleeding. Mice were sacrificed by cervical dislocation and spleens, livers and duodena were harvested and used for biomarker analysis. All experiments have been performed in compliance with license approved by the responsible veterinarian authorities. Serum was isolated by centrifugation of blood into gel-containing microtainers (BD Biosciences) and serum iron was determined by the MULTIGENT Iron assay (Abbott Diagnostics, Cat. 6K95). Four to nine mice per group were used and one-way ANOVA with Bonferroni's multiple comparison test was applied to analyze the statistical differences between the experimental groups.

b2m−/− mice [2] = assay: Prevention of iron overload in beta2-microglobulin deficient mice; assay type: in vivo, mouse; settings: 14 day treatment; for 58Fe Liver Iron Reduction (%): ICP-MS; for Total Liver Iron Reduction (%) / Total Spleen Iron Increase (%): ICP-OES
Description: The efficacy of the Fpn inhibitors to prevent liver iron accumulation in b2m−/− mice was investigated. Three weeks old b2−/− mice fed LID were dosed with either Fpn inhibitor or vehicle (methylcellulose; 10 ml/kg). Mice had access to drinking water supplemented with 1 mM^58Fe(II)-sulfate and 10 mM ascorbic acid. Dosing of Fpn inhibitor or vehicle followed by exposure to iron-containing water was repeated for 14 days. Mice were euthanized and the liver and spleen iron contents were analyzed by ICP-OES (all iron isotopes) and liver tissue was also analyzed for ^58Fe concentration (ICP-MS).

## O=C(NCc1ncccc1F)c1coc(CCNCCc2nc3ccccc3[nH]2)n1 [Example 127]
naïve WT C57BL/6 mice; Dose 10 mg/kg p.o.
  inhibition in vivo at 10 mg/kg: 17%
naïve WT C57BL/6 mice; Dose 30 mg/kg p.o.
  inhibition in vivo at 30 mg/kg: 47%
naïve WT C57BL/6 mice; Dose 100 mg/kg p.o.
  inhibition in vivo at 100 mg/kg: 54%
ferroportin
  IC50: 80 nM
b2m−/− mice [1]; female, Dose 20 mg/kg oral
  Serum Iron Reduction (%): 47*** %
b2m−/− mice [1]; female, Dose 60 mg/kg oral
  Serum Iron Reduction (%): 74*** %
b2m−/− mice [1]; male, Dose 20 mg/kg oral
  Serum Iron Reduction (%): 21%
b2m−/− mice [1]; male, Dose 60 mg/kg oral
  Serum Iron Reduction (%): 83** %
b2m−/− mice [2]; female, 20 mg/kg p.o. b.i.d.
  58Fe Liver Iron Reduction (%): 34%
  Total Liver Iron Reduction (%): −38%
  Total Spleen Iron Increase (%): 71* %
b2m−/− mice [2]; female, 60 mg/kg p.o. b.i.d.
  58Fe Liver Iron Reduction (%): 63*** %
  Total Liver Iron Reduction (%): 2%
  Total Spleen Iron Increase (%): 51%
b2m−/− mice [2]; male, 20 mg/kg p.o. b.i.d.
  58Fe Liver Iron Reduction (%): 71*** %
  Total Liver Iron Reduction (%): 50** %
  Total Spleen Iron Increase (%): −7%
b2m−/− mice [2]; male, 60 mg/kg p.o. b.i.d.
  58Fe Liver Iron Reduction (%): 73*** %
  Total Liver Iron Reduction (%): 65*** %
  Total Spleen Iron Increase (%): −16%
